Data from PubChem BioAssay AID2060494 (Molecular Pharmacology Branch, DTP, NCI, 2025).

System: 435261-313-R-J1-PDC complex spheroid viability
Assay: Anticancer human tumor 435261-313-R-J1-PDC patient-derived colon adenocarcinoma cell line growth inhibition [GQUAD]
Conditions: for IC50: curve of first compound; for viability, T/C: stronger effect = lower value
Excerpt: DNA G-quadruplex Stabilizer Agents in Combinations in Complex Spheroids
A high-throughput screen of multi-cell type tumor spheroids was designed to identify active combinations of DNA G-quadruplex stabilizer agents and targeted small molecules. Complex spheroids include a stromal component modeled by human endothelial cells (HUVEC) and fibroblasts modeled by human mesenchymal stem cells (MSCs). The concentration ranges selected for each drug and investigational agent were based upon clinically achievable concentrations if the clinical Cmax of the agent was known.
Compounds. The drugs and investigational agents: pidnarulex (CX-5461; NSC782164), APTO-253 (NSC789042), BRACO-19 (NSC847499), peposertib (NSC802822), ceralasertib (NSC780249), elimusertib (NSC800525), camonsertib (NSC841442), AZD-1390 (NSC803789), olaparib (NSC753686), talazoparib (NSC767125), ART-558 (NSC835418), sotorasib (NSC818433), MRTX-1133 (NSC836407), SN-38 (NSC673596), topotecan (NSC609699), etoposide (NSC141540), doxorubicin (NSC123127), gemcitabine (NSC613327), 5-fluorouracil (NSC19893), paclitaxel (NSC125973), vemurafenib (NSC761431), panobinostat (NSC761190), R-306465 (JNJ-16241199; NSC773264), adavosertib (NSC754352), TP-3654 (NSC805149), carboplatin (NSC241240), KSQ-4279 (NSC840948), and staurosporine (NSC755774) were obtained from the National Cancer Institute (NCI) Developmental Therapeutics Program Chemical Repository (34). The FDA-approved anticancer drug set is available from the NCI Developmental Therapeutics Program. […] The stock solutions were prepared in dimethyl sulfoxide (DMSO, Sigma-Aldrich, St. Louis, MO, cat. D2650) at 800-fold the tested concentration and stored at -70 degrees C prior to their use. All drugs and investigational agents were tested over a range starting from a high concentration at or near the clinical Cmax and decreasing in half-log increments. If the clinical Cmax for an agent had not been determined, the highest concentration tested was 10 microM.
2.3 Cell Culture. All cells were maintained in an incubator at 37 degrees C and 5% CO2 with 95% humidity. The PDC lines were cultured according to standard operating procedures established by the NCI PDMR. All PDCs were thawed and cultured in Matrigel-coated flasks prepared with a working solution of 1X Ham's F-12 nutrient mix, without supplementation (Invitrogen, cat. 11765054), 100 U/mL penicillin-streptomycin (Invitrogen, cat. 15140122), and 2.5% Matrigel (Corning Inc., cat. 354248) for the first three passages. The 857933-349-R-J2-PDC line was cultured in 6C/Colon 1B media, which includes advanced DMEM/F-12 (Thermo Fisher Scientific, cat. 12634028), 10 mM HEPES (Thermo Fisher Scientific, cat. 15630080), 1X GlutaMAX supplement (Thermo Fisher Scientific, cat. 35050061), 0.1 mg/mL primocin (InvivoGen, cat. ant-pm-2), 10% defined fetal bovine serum, heat inactivated (HyClone Laboratories Inc., cat. SH30070.03HI), 50% L-WRN conditioned media (ATCC, cat. CRL-3276), 1.25 mM N-Acetyl-L-cysteine (Sigma-Aldrich, cat. A9165), 10 mM nicotinamide (Sigma-Aldrich, cat. N0636), 1X B-27 supplement (Thermo Fisher Scientific, cat. 17504044), 1X N-2 supplement (Thermo Fisher Scientific, cat. 17502048), 10 microM Y-27632 dihydrochloride (Tocris Bioscience, cat. 1254), and 50 ng/mL human EGF recombinant protein (Thermo Fisher Scientific, cat. PHG0311). The 485176-168-R4-J1-PDC line was cultured in Panc media, which includes all 6C/Colon 1B media components plus 100 ng/mL human FGF-10 (Thermo Fisher Scientific, cat. 100-26), 500 nM SB-431542 (Selleckchem, cat. S1067), and gastrin (Tocris, cat. 3006).
[…]

[1] = second compound 0.0316 µM, first compound 0.0316 µM
[2] = second compound 0.0316 µM, first compound 0.316 µM
[3] = second compound 0.1 µM, first compound 0.0316 µM
[4] = second compound 0.1 µM, first compound 0.316 µM
[5] = second compound 0.316 µM, first compound 0.0316 µM
[6] = second compound 0.316 µM, first compound 0.316 µM
[7] = second compound 1 µM, first compound 0.0316 µM
[8] = second compound 1 µM, first compound 0.316 µM
[9] = second compound 3.16 µM, first compound 0.0316 µM
[10] = second compound 3.16 µM, first compound 0.316 µM
[11] = second compound 10 µM, first compound 0.0316 µM
[12] = second compound 10 µM, first compound 0.316 µM
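Further: spheroids exposed to the agents for seven days before readout.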
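Wherever viability, T/C is given: percent of vehicle control viability with DMSO wells as 100%.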

Which results are given for `CCc1c2c(nc3ccc(O)cc13)-c1cc3c(c(=O)n1C2)COC(=O)[C@]3(O)CC` + Cc1[nH]c2ccc(F)cc2c1-c1nc2c3cccnc3c3ncccc3c2[nH]1?
IC50 (second compound 0.0316 µM): 21.2 nM; IC50 (second compound 0.1 µM): 23.2 nM; IC50 (second compound 0.316 µM): 23.8 nM; IC50 (second compound 1 µM): < 0.999 nM; IC50 (second compound 3.16 µM): < 0.999 nM; IC50 (second compound 10 µM): < 0.999 nM; viability, T/C (second compound 0.0316 µM, first compound 0.000999 µM): 119%; viability, T/C (second compound 0.0316 µM, first compound 0.00316 µM): 62.1%; viability, T/C (second compound 0.0316 µM, first compound 0.00999 µM): 67%; viability, T/C [1]: 46.7%; viability, T/C (second compound 0.0316 µM, first compound 0.0999 µM): 51.3%; viability, T/C [2]: 33.8%; viability, T/C (second compound 0.1 µM, first compound 0.000999 µM): 93.9%; viability, T/C (second compound 0.1 µM, first compound 0.00316 µM): 64.4%; viability, T/C (second compound 0.1 µM, first compound 0.00999 µM): 58.5%; viability, T/C [3]: 49.4%; viability, T/C (second compound 0.1 µM, first compound 0.0999 µM): 46.5%; viability, T/C [4]: 33.9%; viability, T/C (second compound 0.316 µM, first compound 0.000999 µM): 53.6%; viability, T/C (second compound 0.316 µM, first compound 0.00316 µM): 51.5%; viability, T/C (second compound 0.316 µM, first compound 0.00999 µM): 53.2%; viability, T/C [5]: 49.1%; viability, T/C (second compound 0.316 µM, first compound 0.0999 µM): 31.8%; viability, T/C [6]: 29.7%; viability, T/C (second compound 1 µM, first compound 0.000999 µM): 45.6%; viability, T/C (second compound 1 µM, first compound 0.00316 µM): 55.6%; viability, T/C (second compound 1 µM, first compound 0.00999 µM): 32.9%; viability, T/C [7]: 34%; viability, T/C (second compound 1 µM, first compound 0.0999 µM): 33.1%; viability, T/C [8]: 23.8%; viability, T/C (second compound 3.16 µM, first compound 0.000999 µM): 32.8%; viability, T/C (second compound 3.16 µM, first compound 0.00316 µM): 30.6%; viability, T/C (second compound 3.16 µM, first compound 0.00999 µM): 35.4%; viability, T/C [9]: 24%; viability, T/C (second compound 3.16 µM, first compound 0.0999 µM): 20.1%; viability, T/C [10]: 21.2%; viability, T/C (second compound 10 µM, first compound 0.000999 µM): 22.2%; viability, T/C (second compound 10 µM, first compound 0.00316 µM): 18.8%; viability, T/C (second compound 10 µM, first compound 0.00999 µM): 25.3%; viability, T/C [11]: 16.7%; viability, T/C (second compound 10 µM, first compound 0.0999 µM): 16.1%; viability, T/C [12]: 17.3%

Which IC50 (second compound 0.0316 µM) does the source give for `O=C(NO)c1cnc(N2CCN(S(=O)(=O)c3ccc4ccccc4c3)CC2)nc1` + Cc1[nH]c2ccc(F)cc2c1-c1nc2c3cccnc3c3ncccc3c2[nH]1 here?
The IC50 was 430 nM.

And the IC50 (second compound 0.1 µM)?
Its IC50 is 503 nM.

What about the IC50 (second compound 0.316 µM) of the same molecule?
The IC50 was 600 nM.

What about the IC50 (second compound 1 µM) of the same molecule?
Its IC50 is 541 nM.

What about the IC50 (second compound 3.16 µM) of the same molecule?
Its IC50 is under 31.6 nM.

What about the IC50 (second compound 10 µM) of the same molecule?
Its IC50 is under 31.6 nM.

And the viability, T/C [1]?
The viability, T/C was 72.4%.

And the viability, T/C (second compound 0.0316 µM, first compound 0.1 µM)?
Its viability, T/C is 66.6%.

And the viability, T/C [2]?
Its viability, T/C is 52.3%.

And the viability, T/C (second compound 0.0316 µM, first compound 1 µM)?
The viability, T/C was 37.3%.

And the viability, T/C (second compound 0.0316 µM, first compound 3.16 µM)?
Its viability, T/C is 0.25%.

What about the viability, T/C (second compound 0.0316 µM, first compound 10 µM) of the same molecule?
Its viability, T/C is 0.68%.

And the viability, T/C [3]?
Its viability, T/C is 72.8%.

And the viability, T/C (second compound 0.1 µM, first compound 0.1 µM)?
Its viability, T/C is 79.5%.

And the viability, T/C [4]?
The viability, T/C was 62%.

What about the viability, T/C (second compound 0.1 µM, first compound 1 µM) of the same molecule?
Its viability, T/C is 30.2%.

What about the viability, T/C (second compound 0.1 µM, first compound 3.16 µM) of the same molecule?
Its viability, T/C is 0.15%.

What about the viability, T/C (second compound 0.1 µM, first compound 10 µM) of the same molecule?
The viability, T/C was 0.1%.

What about the viability, T/C [5] of the same molecule?
The viability, T/C was 60.8%.

What about the viability, T/C (second compound 0.316 µM, first compound 0.1 µM) of the same molecule?
The viability, T/C was 75.7%.

And the viability, T/C [6]?
The viability, T/C was 65.5%.

What about the viability, T/C (second compound 0.316 µM, first compound 1 µM) of the same molecule?
Its viability, T/C is 36.8%.

What about the viability, T/C (second compound 0.316 µM, first compound 3.16 µM) of the same molecule?
The viability, T/C was 0.27%.

And the viability, T/C (second compound 0.316 µM, first compound 10 µM)?
Its viability, T/C is 0.1%.

What about the viability, T/C [7] of the same molecule?
Its viability, T/C is 71%.

What about the viability, T/C (second compound 1 µM, first compound 0.1 µM) of the same molecule?
Its viability, T/C is 65.6%.

And the viability, T/C [8]?
Its viability, T/C is 57.6%.

What about the viability, T/C (second compound 1 µM, first compound 1 µM) of the same molecule?
Its viability, T/C is 38.4%.

And the viability, T/C (second compound 1 µM, first compound 3.16 µM)?
The viability, T/C was 0.35%.

And the viability, T/C (second compound 1 µM, first compound 10 µM)?
Its viability, T/C is 0.13%.

And the viability, T/C [9]?
Its viability, T/C is 42.5%.

And the viability, T/C (second compound 3.16 µM, first compound 0.1 µM)?
The viability, T/C was 25.7%.

And the viability, T/C [10]?
Its viability, T/C is 27%.

And the viability, T/C (second compound 3.16 µM, first compound 1 µM)?
The viability, T/C was 30.6%.

What about the viability, T/C (second compound 3.16 µM, first compound 3.16 µM) of the same molecule?
The viability, T/C was 0.41%.

What about the viability, T/C (second compound 3.16 µM, first compound 10 µM) of the same molecule?
Its viability, T/C is 0.14%.

What about the viability, T/C [11] of the same molecule?
Its viability, T/C is 29.7%.

And the viability, T/C (second compound 10 µM, first compound 0.1 µM)?
The viability, T/C was 28.4%.

And the viability, T/C [12]?
Its viability, T/C is 20.8%.

And the viability, T/C (second compound 10 µM, first compound 1 µM)?
Its viability, T/C is 12.5%.

What about the viability, T/C (second compound 10 µM, first compound 3.16 µM) of the same molecule?
The viability, T/C was 0.86%.

What about the viability, T/C (second compound 10 µM, first compound 10 µM) of the same molecule?
Its viability, T/C is 0.16%.
